Broadly, the Ki is a dissociation constant, usually derived from enzyme kinetics or from competition with a known ligand. As a reminder, the EC50 is the concentration giving half of the maximal effect.

Test [1] concerns the target T1, cloned human β1-adrenergic receptor (Homo sapiens, UniProt P08588).
T1 construct: expressed in transfected cells; host or cells: CHO (membranes)
In words: [3H]-dihydroalprenolol binding on CHO cell membranes, β1-adrenergic receptor. The conditions noted are these: human β1; Cheng-Prusoff; 4 nM [3H]-dihydroalprenolol; read-out: Binding Ki, β1. As to the method:
(§1) The cell lines of “Chinese hamster ovary” (CHO) that individually express the three subtypes of the human adrenergic receptor (β1, β2 or β3 were grown at 37° C. in an atmosphere composed of 5% of CO2 and 95% of air in a culture medium of Dulbecco's Modified Eagle Medium with a nutrient mixture of F12 (DMEM/F12) supplemented with 10% of bovine fetal Serum, 2 mM of L-glutamine, 100 units/ml of penicillin G and 100 μg/ml of […].
(§2) The preconfluence cells were washed with cold PBS, removed from the surface of the plate, collected in cold lysis buffer (10×10^6/ml; 5 mM Tris/HCl, 2 mM EDTA, pH 7.4 at 4° C.) and homogenized with a Brinkmann Polytron (5 for 3×10 secs). The cell membranes obtained were then […] for 10 mins at 4° C. at 1000 g. The supernatant was centrifuged at 10000 g for 30 min. at 4° C. The resultant membrane pellet was resuspended in cold incubation buffer (50 mM Tris/HCl, 10 mM MgCl2, pH 7.4 for the binding experiments on the β1-adrenergic receptors; 50 mM Tris/HCl, pH 7.4 for the binding experiments of on the β2-adrenergic receptors) and its protein content was then determined. The membrane suspension obtained was used immediately or stored at −80° C. until used in the binding experiments.
(§3) The saturation experiments were conducted by incubating the cell membranes (50 μg of protein) in 500 μl of incubation buffer, containing increasing concentrations of [^3H]-dihydroalprenolol (0.1 nM, 0.5 nM, 1 nM, 3 nM, 5 nM, 10 nM). The β1-adrenergic receptors were incubated at 30° C. for 30 min. while the incubation lasted 90 min. in the case of the β2-adrenergic receptor. […] The filters were then washed (3×1 ml) with cold incubation buffer. The residual radioactivity of the filters was measured using a Beckmann LS6500 Multi-purpose scintillator.
(§4) The competitive experiments were conducted by incubation of 50 μg of protein with increasing quantities of the compound under examination (from 10^−9M to 10^−4M) and 4 nM [^3H]-dihydroalprenolol for the β1-adrenergic receptor or 0.4 nM for the β2-adrenergic receptor, in a total volume of 500 μl of incubation buffer.

For test [2], the target named is T2, cloned human β2-adrenergic receptor (Homo sapiens, UniProt P07550).
T2 construct: expressed in transfected cells; host or cells: CHO (membranes)
In words: [3H]-dihydroalprenolol binding on CHO cell membranes, β2-adrenergic receptor. The following applies: compound at 10 μM.

Test [3] concerns the target T3, cloned human beta-3 adrenergic receptor (Homo sapiens, UniProt P13945).
T3 construct: expressed in transfected cells; host or cells: CHO-K1
In words: cAMP accumulation (DELFIA cAMP-Eu assay) in CHO-K1 cells expressing the beta-3 adrenergic receptor. The format is cell-based. As to the method:
The determination of the beta-3 adrenergic activity of the compounds of general formula (I) was performed by measuring the levels of cAMP in cell lines of CHO-K1 that express the cloned human beta-3 adrenergic receptor. The accumulation of cAMP is directly correlated to the beta-3 adrenergic activity of the compound and is a predictive measure of the effectiveness of the ligand. The accumulation of cAMP produced by the compounds 1a-1h was determined using the Dissociation Enhanced Lanthanide Fluorescence Immunoassay (DELFIA®, Gabriel, D.; Vernier, M.; Pfeifer, M. J.; Dasen, B.; Tenaillon, L.; Bouhelal, R. Assay and Drug Development Technologies 2003, 1, 291-303), endowed with greater sensitivity and greater accuracy than [α-^32P] radioisotope methods (Hoffmann, C.; Leitz, M. R.; Obendorf-Maass, S.; Lohse, M. J.; Klotz, K.-N. Naunyn-Schmiedeberg's Arch. Pharmacol. 2004, 369, 151-159) or [^3H] (Nannies, K. M.; Briend-Sutren, M. M.; Emorine, L. J.; Delavier-Klutchko, C.; Marullo, S.; Strosberg, A. D. Eur. J. Biochem. 1991, 196, 357-361) of determining the levels of cAMP in cell lines.
as §1
The DELFIA test (Dissociation Enhanced Lanthanide […] Immuno Assay) used for measuring the levels of cAMP was performed according to the protocol supplied by PerkinElmer Life Science. The optimization of the experimental conditions (quantity of cells, times of incubation) is reported below.
A plate of confluence cells was trypsinized and the cells were resuspended in the aforementioned culture medium, sown at a concentration of 50000 cells/200 μl per well in a 96-well plate and cultivated overnight in a CO2 incubator. The culture medium was then aspirated from every well and substituted with 100 μl of culture substrate without serum, preheated at 37° C. The plate was then put back into a CO2 incubator for 30 mins at 37° C. 50 μl of IBMX (3-isobutyl-1-methylxanthine) 1 mM, an inhibitor of the phosphodiesterase was then added to all the wells. In some wells 50 μl of forskolin (compound used for the validation of the DELFIA) was added at different concentrations (100 nM, 500 nM, 1 μM, 10 μM, 50 μM) and in the other wells 50 μl of the compounds to be tested at the same concentrations as the forskolin; the plate was then again incubated for 30 min at 37° C. The cells, at this point, were lysed and incubated at room temperature for 5 min. The plate was used immediately for measuring the levels of cAMP or stored at 4° C. until the measurement was carried out. The fluorescence was determined using a multilabel time-resolved fluorimetry technique performed on a PerkinElmer 1420 Victor®. The excitation and emission wavelengths were 340 nm and 615 nm respectively.

The target in test [4] is T1, cloned human β1-adrenergic receptor. The experiment in a line: [3H]-dihydroalprenolol binding on CHO cell membranes, β1-adrenergic receptor. The following applies: compound at 10 μM.
Test [5] addresses T2, cloned human β2-adrenergic receptor. The experiment in a line: [3H]-dihydroalprenolol binding on CHO cell membranes, β2-adrenergic receptor. The conditions noted are these: human β2; Cheng-Prusoff; 0.4 nM [3H]-dihydroalprenolol; read-out: Binding Ki, β2. As to the method: as §1, §2, §3, §4

T2 sequence (P07550 whole entry): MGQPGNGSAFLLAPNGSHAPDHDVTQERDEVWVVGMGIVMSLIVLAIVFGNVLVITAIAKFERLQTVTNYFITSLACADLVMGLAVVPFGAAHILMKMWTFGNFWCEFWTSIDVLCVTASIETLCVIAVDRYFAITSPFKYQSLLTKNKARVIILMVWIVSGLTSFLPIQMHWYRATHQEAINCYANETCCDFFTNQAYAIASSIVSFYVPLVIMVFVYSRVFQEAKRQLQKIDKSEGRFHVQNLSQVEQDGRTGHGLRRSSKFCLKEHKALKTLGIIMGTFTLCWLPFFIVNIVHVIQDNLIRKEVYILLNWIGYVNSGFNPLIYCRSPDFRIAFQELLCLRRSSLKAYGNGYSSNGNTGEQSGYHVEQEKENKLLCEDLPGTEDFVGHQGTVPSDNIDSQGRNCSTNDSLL
T1 sequence (P08588 whole entry): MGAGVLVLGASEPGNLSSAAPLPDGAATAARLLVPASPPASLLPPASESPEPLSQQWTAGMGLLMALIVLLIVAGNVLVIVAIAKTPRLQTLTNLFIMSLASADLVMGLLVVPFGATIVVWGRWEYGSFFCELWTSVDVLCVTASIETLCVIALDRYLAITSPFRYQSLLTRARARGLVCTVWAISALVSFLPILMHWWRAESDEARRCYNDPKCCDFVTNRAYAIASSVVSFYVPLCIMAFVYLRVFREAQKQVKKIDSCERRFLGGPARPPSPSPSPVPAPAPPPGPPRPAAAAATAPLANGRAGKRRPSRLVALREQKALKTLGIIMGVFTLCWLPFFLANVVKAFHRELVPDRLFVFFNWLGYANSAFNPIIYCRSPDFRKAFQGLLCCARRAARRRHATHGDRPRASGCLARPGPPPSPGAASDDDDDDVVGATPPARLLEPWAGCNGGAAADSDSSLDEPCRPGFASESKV
T3 sequence (P13945 whole entry): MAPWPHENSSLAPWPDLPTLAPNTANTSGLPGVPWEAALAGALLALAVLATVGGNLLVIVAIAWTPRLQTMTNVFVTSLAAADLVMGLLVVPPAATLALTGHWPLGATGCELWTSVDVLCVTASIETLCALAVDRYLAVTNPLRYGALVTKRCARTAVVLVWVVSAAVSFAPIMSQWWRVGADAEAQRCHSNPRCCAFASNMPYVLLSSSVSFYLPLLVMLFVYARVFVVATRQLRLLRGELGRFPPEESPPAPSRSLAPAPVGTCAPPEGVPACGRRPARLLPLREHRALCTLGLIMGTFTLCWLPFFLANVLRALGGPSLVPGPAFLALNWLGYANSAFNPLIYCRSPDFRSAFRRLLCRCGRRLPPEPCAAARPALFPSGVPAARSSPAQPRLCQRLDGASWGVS

For the molecule `C[C@@H](Oc1ccc(CCN[C@H](C)[C@@H](O)c2ccccc2)cc1)C(=O)O` [Compound 1j], the Ki in test [1] is > 7000 nM; in test [5], > 5000 nM. In addition, the “% activation at 10 μM, β2” value in test [2] is 21%. This molecule had an EC50 in test [3] (concentration of ligand producing 50% of maximum cAMP accumulation, CHO-K1 human β3, SEM, n ≧ 3) of 211 ± 10 nM. In addition, in test [3] (maximum cAMP response, isoproterenol 10^−4 M = 100%, absence of agonists = 0%), the “Intrinsic Activity (IA %)” value was “(39) %”. In test [4], the “% activation at 10 μM, β1” value is given as 20%.

These data come from US8354412B2, “Beta-3 receptor ligands and their use in therapy” (Universita' Degli Studi di Bari, priority 2006, dated 2013).
